Experiments:
Assay type in all cases: biochemical
[1] = target: PKC theta (Homo sapiens, UniProt Q04759); experiment: PKC Theta I coupled-enzyme (NADH absorbance) kinase assay; details: 18 nM PKC theta, 240 μM ATP, 30° C., absorbance at 340 nm
Protocol: (§1) An assay buffer solution was prepared which consisted of 100 mM HEPES (pH 7.5), 10 mM MgCl2, 25 mM NaCl, 0.1 mM EDTA and 0.01% Brij. […] To 60 μL of this enzyme buffer, in a 384 well plate, was added 2 μL of VRT stock solution in DMSO. The mixture was allowed to equilibrate for 10 mins at 30° C. […] Ki values were calculated from initial rate data by non-linear regression using the Prism software package (Prism 4.0a, Graphpad Software, San Diego, Calif.).

[2] = target: PKC delta kinase (Homo sapiens, UniProt Q05655); experiment: PKC Delta coupled-enzyme kinase assay; details: 46 nM PKC delta, 150 μM ATP, 30° C.; read-out: Ki PKC delta
Protocol: as §1, with “To 16” for “To 60”, “added 1” for “added 2”

[3] = target: PKC alpha kinase (Homo sapiens, UniProt P17252); experiment: PKC Alpha coupled-enzyme kinase assay; details: 4.5 nM PKC alpha, 130 μM ATP, 30° C.
Protocol: An assay buffer solution was prepared which consisted of 100 mM HEPES (pH 7.5), 10 mM MgCl2, 25 mM NaCl, 0.1 mM EDTA, 100 μM CaCl2 and 0.01% Brij. […] To 16 μL of this enzyme buffer, in a 384 well plate, was added 1 μL of VRT stock solution in DMSO. The mixture was allowed to equilibrate for 10 mins at 30° C. The enzyme reaction was initiated by the addition of 16 μL stock ATP solution prepared in assay buffer to a final assay concentration of 130 μM. Initial rate data was determined from the rate of change of absorbance at 340 nm (corresponding to stoichiometric consumption of NADH) using a Molecular Devices Spectramax plate reader (Sunnyvale, Calif.) over 15 mins at 30° C. For each Ki determination 12 data points covering the VRT concentration range of 0-20 μM were obtained in duplicate (DMSO stocks were prepared from an initial 10 mM VRT stock with subsequent 1:2 serial dilutions). Ki values were calculated from initial rate data by non-linear regression using the Prism software package (Prism 4.0a, Graphpad Software, San Diego, Calif.).

Sequence of PKC delta kinase (Q05655 whole entry): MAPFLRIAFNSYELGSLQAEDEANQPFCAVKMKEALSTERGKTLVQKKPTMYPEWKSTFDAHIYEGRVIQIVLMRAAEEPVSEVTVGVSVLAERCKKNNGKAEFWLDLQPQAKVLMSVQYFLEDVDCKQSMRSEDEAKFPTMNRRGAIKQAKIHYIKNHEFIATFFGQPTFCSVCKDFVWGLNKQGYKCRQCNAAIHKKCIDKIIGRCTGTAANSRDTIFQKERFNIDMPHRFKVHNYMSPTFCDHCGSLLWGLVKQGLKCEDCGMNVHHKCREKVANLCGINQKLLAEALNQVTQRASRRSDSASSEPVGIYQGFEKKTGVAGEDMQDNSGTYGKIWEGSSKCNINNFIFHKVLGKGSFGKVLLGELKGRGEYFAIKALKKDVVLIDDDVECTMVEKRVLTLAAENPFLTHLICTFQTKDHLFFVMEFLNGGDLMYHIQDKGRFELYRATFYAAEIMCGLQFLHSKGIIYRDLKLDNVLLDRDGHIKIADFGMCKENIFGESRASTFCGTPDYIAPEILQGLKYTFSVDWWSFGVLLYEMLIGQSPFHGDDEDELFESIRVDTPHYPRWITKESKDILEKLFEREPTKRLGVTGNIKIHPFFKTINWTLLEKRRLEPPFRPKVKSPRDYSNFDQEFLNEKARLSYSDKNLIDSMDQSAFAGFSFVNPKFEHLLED
Sequence of PKC theta (Q04759 whole entry): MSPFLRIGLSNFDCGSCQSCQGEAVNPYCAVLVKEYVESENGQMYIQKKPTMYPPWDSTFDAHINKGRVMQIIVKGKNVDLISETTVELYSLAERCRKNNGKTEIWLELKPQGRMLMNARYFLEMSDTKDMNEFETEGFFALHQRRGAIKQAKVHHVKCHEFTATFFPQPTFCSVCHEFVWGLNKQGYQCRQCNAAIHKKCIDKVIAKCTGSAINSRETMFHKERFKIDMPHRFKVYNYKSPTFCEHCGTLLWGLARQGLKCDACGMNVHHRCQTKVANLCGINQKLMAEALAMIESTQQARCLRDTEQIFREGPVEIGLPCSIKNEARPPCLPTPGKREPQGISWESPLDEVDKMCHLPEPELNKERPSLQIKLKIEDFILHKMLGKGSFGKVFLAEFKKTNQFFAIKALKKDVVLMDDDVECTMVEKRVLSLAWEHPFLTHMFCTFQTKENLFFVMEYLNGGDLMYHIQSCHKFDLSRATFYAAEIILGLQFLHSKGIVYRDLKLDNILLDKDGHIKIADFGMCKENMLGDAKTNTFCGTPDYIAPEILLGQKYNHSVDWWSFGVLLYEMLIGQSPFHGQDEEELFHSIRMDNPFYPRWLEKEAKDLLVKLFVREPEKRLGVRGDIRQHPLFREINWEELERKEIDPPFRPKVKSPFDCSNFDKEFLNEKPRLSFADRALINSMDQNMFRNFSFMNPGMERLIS

| Compound | Ki [1] [nM] | Ki [2] [nM] | Ki [3] [nM] |
| --- | --- | --- | --- |
| Nc1ncccc1C(=O)c1cccc(N2CCCN(C(=O)Oc3ccccc3Cl)CC2)n1 [compound 15] | 500 to 2800 | – | – |
| Nc1ncccc1C(=O)c1cccc(N2CCCN(C(=O)C3CC3)CC2)n1 [compound 36] | 500 to 2800 | – | – |
| Nc1ncccc1C(=O)c1cccc(N2CCCN(C(=O)C3CCCCC3)CC2)n1 [compound 38] | 500 to 2800 | – | – |
| CC(C)N(Cc1ccccc1)C(=O)c1ccc(C(=O)c2cccnc2N)s1 [compound 48] | 500 to 2800 | – | – |
| Nc1ncccc1C(=O)c1cccc(N2CCCN(C(=O)Oc3ccccc3)CC2)n1 [compound 52] | 500 to 2800 | – | – |
| C=Cc1cnc(N)c(C(=O)c2cccc(N3CCCN(C(=O)OC(C)(C)C)CC3)n2)c1 [compound 60] | 500 to 2800 | – | – |
| COC(=O)N1CCCN(c2cccc(C(=O)c3cc(Br)cnc3N)n2)CC1 [compound 69] | 500 to 2800 | – | – |
| Nc1ncc(Br)cc1C(=O)c1cc(N2CCCNCC2)cs1 [compound 83] | 500 to 2800 | – | – |
| Nc1ncccc1C(=O)c1cc(N2CCCNCC2)cs1 [compound 84] | 500 to 2800 | – | – |
| Nc1ncccc1C(=O)c1cccc(N2CCC(N)C2)n1 (stereo not drawn) [compound 85] | 500 to 2800 | – | – |
| Nc1ncccc1C(=O)c1nc(N2CCCN(C(=O)CC(F)(F)F)CC2)cs1 [compound 95] | 500 to 2800 | – | – |
| N#CCCN1CCN(c2cccc(C(=O)c3cc(Br)cnc3N)n2)CC1 [compound 96] | 500 to 2800 | – | – |
| Nc1ncc(Br)cc1C(=O)c1cccc(N2CCN(CCO)CC2)n1 [compound 97] | 500 to 2800 | – | – |
| CN(Cc1ccccc1)C(=O)c1ccc(C(=O)c2cccnc2N)s1 [compound 103] | 500 to 2800 | – | – |
| Nc1ncccc1C(=O)c1ccnc(N2CCCNCC2)n1 [compound 111] | 500 to 2800 | – | – |
| NC(=O)C1CCCN(c2cccc(C(=O)c3cc(Br)cnc3N)n2)C1 (stereo not drawn) [compound 122] | 500 to 2800 | – | – |
| Nc1ncc(Br)cc1C(=O)c1cccc(N2CC[C@H](O)C2)n1 [compound 123] | 500 to 2800 | – | – |
| CN(CC(O)c1ccccc1)c1cccc(C(=O)c2cc(Br)cnc2N)n1 (stereo not drawn) [compound 124] | 500 to 2800 | – | – |
| Nc1ncccc1C(=O)c1csc(N2CCCNCC2)n1 [compound 125] | 500 to 2800 | – | – |
| Nc1ncccc1C(=O)c1cccc(N2CCC(NC(=O)CC(F)(F)F)CC2)n1 [compound 129] | 500 to 2800 | – | – |
| Nc1ncc(Br)cc1C(=O)c1cccc(NCCN2CCCCC2)n1 [compound 141] | 500 to 2800 | – | – |
| CCN(Cc1ccccc1)c1cccc(C(=O)c2cc(Br)cnc2N)n1 [compound 142] | 500 to 2800 | – | – |
| CN(C)CCN(Cc1ccccc1)c1cccc(C(=O)c2cc(Br)cnc2N)n1 [compound 143] | 500 to 2800 | – | – |

| Compound | Ki [1] [nM] | Ki [2] [nM] | Ki [3] [nM] |
| --- | --- | --- | --- |
| Nc1ncc(Br)cc1C(=O)c1cccc(N2CCN(C3CCCC3)CC2)n1 [compound 144] | 500 to 2800 | – | – |
| Nc1ncc(Br)cc1C(=O)c1cccc(N2CCCC(c3ccccc3)C2)n1 (stereo not drawn) [compound 145] | 500 to 2800 | – | – |
| CC(C)(O)C#Cc1cnc(N)c(C(=O)c2cccc(N3CCCNCC3)n2)c1 [compound 147] | 500 to 2800 | – | – |
| Nc1ncccc1C(=O)c1cccc(N2CCC(NC3CC3)CC2)n1 [compound 148] | 500 to 2800 | – | – |
| CNC1CCN(c2cccc(C(=O)c3cccnc3N)n2)CC1 [compound 159] | 500 to 2800 | – | – |
| Nc1ncccc1C(=O)c1cccc(N2CCCN(Cc3ccccc3)CC2)n1 [compound 160] | 500 to 2800 | – | – |
| Nc1ncc(-c2cc3ccccc3[nH]2)cc1C(=O)c1cccc(N2CCCNCC2)n1 [compound 168] | 500 to 2800 | – | – |
| Nc1ncc(Br)cc1C(=O)c1cccc(NC[C@H]2CCCC[C@@H]2O)n1 [compound 174] | 500 to 2800 | – | – |
| Nc1ncc(Br)cc1C(=O)c1cccc(NCCCN2CCCC2)n1 [compound 177] | 500 to 2800 | – | – |
| Nc1ncc(C2=CCCCC2)cc1C(=O)c1cccc(N2CCCNCC2)n1 [compound 185] | 500 to 2800 | – | – |
| Cc1cc(C(=O)c2cccnc2N)nc(N2CCCNCC2)c1 [compound 189] | 500 to 2800 | – | – |
| Nc1ncc(NCc2ccccc2)cc1C(=O)c1cccc(N2CCCNCC2)n1 [compound 190] | 500 to 2800 | – | – |
| Nc1ncc(Br)cc1C(=O)c1cccc(N2CCNC(=O)C2)n1 [compound 196] | 500 to 2800 | – | – |
| Cc1cn(C2CCCNCC2)nc1C(=O)c1cccnc1N (stereo not drawn) [compound 212] | 500 to 2800 | – | – |
| Nc1ncccc1C(=O)c1cccc(N2CCNC(c3ccc(Cl)cc3)C2)n1 (stereo not drawn) [compound 307] | – | 500 to 2800 | 500 to 2800 |
| COc1ccc(C2CN(c3cccc(C(=O)c4cccnc4N)n3)CCN2)cc1 (stereo not drawn) [compound 310] | – | 50 to 500 | 500 to 2800 |
| Nc1ncc(Br)cc1C(=O)c1nc(N2CCNCC2)ccc1C(F)(F)F [compound 325] | – | 50 to 500 | < 50 |
| Nc1ncc(Br)cc1C(=O)c1nc(N2CCNC(c3ccccc3)C2)ccc1C(F)(F)F (stereo not drawn) [compound 326] | – | 50 to 500 | < 50 |
| C=Cc1cnc(N)c(C(=O)c2nc(N3CCNC(c4ccccc4)C3)ccc2C(F)(F)F)c1 (stereo not drawn) [compound 328] | – | 50 to 500 | < 50 |
| C=Cc1cnc(N)c(C(=O)c2nc(N3CCNC(c4ccccc4)C3)ccc2Cl)c1 (stereo not drawn) [compound 332] | – | 50 to 500 | < 50 |
| NCC1CCCN(c2cccc(C(=O)c3cccnc3N)n2)C1 (stereo not drawn) [compound 333] | – | > 2800 | > 2800 |
| Cc1ccc(C2CN(c3cccc(C(=O)c4cccnc4N)n3)CCN2)cc1 (stereo not drawn) [compound 336] | – | 500 to 2800 | 500 to 2800 |
| CC(C)[C@H]1CN(c2ccc(C(F)(F)F)c(C(=O)c3cccnc3N)n2)CCN1 [compound 338] | – | 50 to 500 | 500 to 2800 |

| Compound | Ki [1] [nM] | Ki [2] [nM] | Ki [3] [nM] |
| --- | --- | --- | --- |
| Cc1ccccc1C1CN(c2cccc(C(=O)c3cccnc3N)n2)CCN1 (stereo not drawn) [compound 339] | – | 50 to 500 | 500 to 2800 |
| Nc1ncccc1C(=O)c1nc(Cl)cnc1N1CCNCC1 [compound 340] | – | > 2800 | > 2800 |
| Nc1ncccc1C(=O)c1nccc(N2CCNC(c3ccccc3)C2)n1 (stereo not drawn) [compound 341] | – | > 2800 | > 2800 |
| C=Cc1ccc(N2CCNCC2)nc1C(=O)c1cccnc1N [compound 342] | – | 50 to 500 | 500 to 2800 |
| Nc1ncccc1C(=O)c1nc(N2CCNCC2)cnc1Cl [compound 343] | – | 50 to 500 | 500 to 2800 |
| Nc1ncccc1C(=O)c1nccc(N2CCNCC2)n1 [compound 344] | – | > 2800 | > 2800 |
| CC(C)C[C@H]1CN(c2ccnc(C(=O)c3cccnc3N)n2)CCN1 [compound 345] | – | > 2800 | 500 to 2800 |
| CCc1ccc(N2CCNCC2)nc1C(=O)c1cccnc1N [compound 348] | – | 50 to 500 | > 2800 |
| CCc1ccc(N2CCNC(c3ccccc3)C2)nc1C(=O)c1cccnc1N (stereo not drawn) [compound 350] | – | 50 to 500 | 500 to 2800 |
| CC(=O)c1ccc(N2CCN[C@@H](CC(C)C)C2)nc1C(=O)c1cccnc1N [compound 351] | – | 500 to 2800 | > 2800 |
| CC(F)(F)c1ccc(N2CCNC(c3ccccc3)C2)nc1C(=O)c1cccnc1N (stereo not drawn) [compound 355] | – | 50 to 500 | 500 to 2800 |
| Nc1ncccc1C(=O)c1nc(N2CCNC(c3ccccc3)C2)ccc1OC(F)F (stereo not drawn) [compound 360] | – | 50 to 500 | 500 to 2800 |
| NCCSc1ccc(C(F)(F)F)c(C(=O)c2cccnc2N)n1 [compound 367] | – | 500 to 2800 | 500 to 2800 |
| NCCNc1ccc(C(F)(F)F)c(C(=O)c2cccnc2N)n1 [compound 371] | – | 500 to 2800 | 500 to 2800 |
| NCCCNc1ccc(C(F)(F)F)c(C(=O)c2cccnc2N)n1 [compound 372] | – | 500 to 2800 | 500 to 2800 |
| Nc1ncccc1C(=O)c1nc(NCC2CCNC2)ccc1C(F)(F)F (stereo not drawn) [compound 377] | – | 50 to 500 | 500 to 2800 |
| Nc1ncccc1C(=O)c1nc(NCC2CCCN2)ccc1C(F)(F)F (stereo not drawn) [compound 379] | – | 500 to 2800 | 500 to 2800 |
| Nc1ncccc1C(=O)c1nc(NCC2CCCNC2)ccc1C(F)(F)F (stereo not drawn) [compound 387] | – | 50 to 500 | 500 to 2800 |
| Cc1cccc(C2CN(c3ccc(C(F)(F)F)c(C(=O)c4cccnc4N)n3)CCN2)c1 (stereo not drawn) [compound 392] | – | 50 to 500 | < 50 |
| CC(C)[C@H](N)CNc1ccc(C(F)(F)F)c(C(=O)c2cccnc2N)n1 [compound 395] | – | 500 to 2800 | 500 to 2800 |
| CC(C)[C@H](N)COc1ccc(C(F)(F)F)c(C(=O)c2cccnc2N)n1 [compound 400] | – | 500 to 2800 | 500 to 2800 |
| CC(C)C[C@H]1CN(c2ccc(CC(F)F)c(C(=O)c3cccnc3N)n2)CCN1 [compound 401] | – | 50 to 500 | 500 to 2800 |

— patent US20110077237A1, “KINASE INHIBITORS” (VERTEX PHARMACEUTICALS INCORPORATED, priority 2007, published 2011)
